The source of these data is patent US20170105999A1, “METHOD FOR TREATING DRUG RESISTANT CANCER” (NATIONAL YANG MING UNIVERSITY, priority 2014, published 2017).

SMILES strings stand for the structures.

One experiment concerns CL141. The experiment is described as follows: Cytotoxicity, sulforhodamine B (SRB) assay. Format: cell-based. The conditions noted are these: read-out: IC50 for prochlorperazine metabolites, CL141 parental cells. On the procedure: (§1) Cells were plated in 96-well plates at a density of 2000 cells per well in triplicate. The cells were treated on the third day (to ensure proper plating efficiency and vitality) to indicated agents for 48 hrs. […] Cytotoxicity was assessed using the sulforhodamine B (SRB) assay (23). Briefly, the medium was discarded, and the adherent cells were fixed by 100 μl of cold 10% trichioroacetic acid (w/v) in each well for 1 h at 4° C. After fixation, cells were stained with 100 μl/well of 0.4% (w/v, in 1% acetic acid) SRB solution for 30 min at room temperature, and then washed 5 times with 1% acetic acid. After air-drying, 100 μl of 10 mM Tris base was added to each well and the absorbance was read at 530 nm. Cytotoxicity is expressed as the percent of cells in drug treated wells relative to number of cells in the solvent only control (set to 100%). Each experiment was performed independently at least 2 times in triplicate and cytotoxicity is given as means ±SD.
(§2) A549, A549-ON, CL97, CL141, HCC827, and H441 were lung adenocarcinoma cell lines. CL152, H2170, and H226 were squamous cell carcinoma cell lines. Cell viability was determined by SRB assay. […] To determine whether side population (SP) cells, which represent a cell population with CSC characteristics, exist in NSCLC cell lines, we stained the cells with the fluorescent dye, Hoechst 33342, and analyzed the cells with flow cytometry.
A general note: Sulforhodamine B stains cellular protein and so reports cell mass.

For experiment [1], the system named is CL152. Description: Cytotoxicity, sulforhodamine B (SRB) assay. The conditions noted are these: read-out: IC50 for prochlorperazine metabolites, CL152 parental cells. Format: cell-based. The protocol:
as §1, §2

The next experiment deals with CL97. The experiment is described as follows: Tumor spheroid (sphere formation) assay. It counts as cell-based.
A further experiment concerns Mahlavu. Description: Tumor spheroid (sphere formation) assay. It counts as cell-based. Particulars: liver cancer.
In the next experiment the test system is U87MG. The experiment is described as follows: Tumor spheroid (sphere formation) assay. Format: cell-based. Particulars: brain cancer.
The test system of another experiment is MDA-MB-231. Description: Tumor spheroid (sphere formation) assay. Format: cell-based. The conditions noted are these: MDA-MB-231, breast cancer.
For the next experiment, the system named is HCC827. The experiment is described as follows: Tumor spheroid (sphere formation) assay.
Experiment [2] has as its system CL152. The experiment is described as follows: Aldefluor assay (ALDH-positive cell population).

Method for HCC827: In brief, single cells were plated in 6-well ultralow attachment plates (Coming Inc.) at a density of 2,000 cells/mL in tumor spheroid culture medium, DMEM/F12 supplemented with 1% N2 Supplement (Invitrogen), 10 ng/mL basic fibroblast growth factor (Sigma-Aldrich), 10 ng/mL epidermal growth factor (Invitrogen) with 1% penicillin/streptomycin (Invitrogen) at 37° C. in a humidified atmosphere of 95% air and 5% CO2. Cells were cultured twice per week. When passaged, tumor spheres were harvested. Spheroids were dissociated with TrypLE™ (Invitrogen). Spheroids cell counting using the Trypan Blue Exclusion method.

For the compound `CN1CCN(CCCN2c3ccccc3Sc3ccc(Cl)cc32)CC1` [prochlorperazine], the IC50 with CL141 and with CL152 [1] was 10 to 20 µM each time. Further, the Sphere formation in the experiment with CL97 (CL97, adenocarcinoma) was 0 to 2.5 µM; with Mahlavu, more than 5 µM; in the experiment with U87MG it was 10 to 15 µM; with MDA-MB-231, 5 to 10 µM; with HCC827 (HCC827, adenocarcinoma) it was 5 to 10 µM. Further, the number of spheres entry in the experiment on CL97 (CL97 sphere cells, 1, 2.5, 5 and 10 μM, 48 hours, concentration-dependent) is given as “reduced the number of spheres”. Also, the “number of sphere cells, co-treatment” value with CL97 (CL97 spheres, co-treatment with gefitinib vs gefitinib alone, 48 hours) is “significantly decreased the number of sphere cells”. For the same compound, the sphere-forming ability entry in the experiment on HCC827 (HCC827) was “suppressed the sphere-forming ability”. In the experiment with HCC827 (HCC827, combination with cisplatin vs prochlorperazine or cisplatin alone), the “spheres number, combination with cisplatin” value is on record as “lower spheres number”. Also, the “ALDH^+ CL152 population” value in the experiment on CL152 [2] (CL152) is “decreased the ALDH^+ CL152 population in a dose-dependent manner”. In addition, in the experiment with CL152 [2] (CL152, squamous cell carcinoma), the “ALDH^+ assay” value is less than 5 µM.
